Legend:
Assay type in all cases: cell-based
[1] = tested on: PSA (Prostate antigen); test: PSA inhibition rate experiment (PSA secretion in supernatant of VCap cells); details: Homo sapiens, 120 h
Description: Cells were collected in exponential growth phase for viable cell count. The cell suspension was adjusted to 4.17×10E4/ml with the medium mentioned above. 120 μl of cell suspension was added to each well of a 96-well cell culture plateat, a final concentration of cells was 5000 cells/well. The cells were incubated overnight in a 37° C., 5% CO2 incubator.
10 mM stocking solution was prepared by dissolving each tested compound in DMSO. […] The final concentration of DMSO per well was 0.2%. The cells were incubated for 5 days in a 37° C., 5% CO2 incubator.
After 5 days' drug treatment, the cell supernatant of each well was collected, and centrifuged at 2000 r/min for 5 minutes, then transferred to a clean EP tube for PSA detection.
Wherein, Vsample is the PSA reading of the drug treatment group, and VDMSO is the average value of PSA of the solvent control group.

[2] = tested on: LNCap cells; test: CTG cell proliferation assay on LNCap cells (method of Effect embodiment 1)
[3] = tested on: Vcap cells; test: CTG cell proliferation assay on Vcap cells (compounds alone or in combination, 5 days); details: for viability at 0.1 µM / viability at 1 µM / viability at 10 µM: Homo sapiens, VCaP, 120 h, read-out: Survival rate of Vcap cells; for Vcap cell proliferation inhibition rate: 5 days
Description: In vitro test of the inhibition effect of the compound in combination with androgen receptor pathway modulators on the prostate cancer cell proliferation.
Inhibition effect of the compounds such as B101, B102, B103, B104, B105, B106, C111 and the like, androgen receptor pathway modulators, hormone compounds, alone or in combination with each other on the prostate cancer cell proliferation were tested on Vcap cells (androgen receptor (+) prostate cancer cells) (ATCC, catalogue number CRL-2876). The specific experimental operation was as follows: 5×10^3 Vcap cells per well were inoculated into 96-well plates with transparent bottom and white wall (Corning, catalogue number CLS3903) containing the specific medium, and were cultured in a 37° C., 5% CO2 incubator for 24 hours. The tested compounds and the androgen receptor pathway modulators were prepared to a 150 mM stocking solution with DMSO (Sigma, catalogue number 276855), diluted with culture medium to the desired concentrations (the final concentration of DMSO is 0.2%), and then added to each well, 2 wells/concentration, followed by being incubated in a 37° C., 5% CO2 incubator for 5 days. The tested compounds were used alone or in combination with other androgen receptor pathway modulators and/or hormone compounds respectively. […] After that, 100 μl of CellTiter-Glo® cell viability assay reagent (Promega, catalogue number G7570) was added to each well and mixed well on a vibrator for 10 minutes to induce cell lysis. The 96-well plate was placed at room temperature for 10 minutes, so as to stabilize its luminescence signal. A white bottom membrane was pasted on the bottom of the plate and the plate was tested using EnSpire.

[4] = tested compound 0.1 μM in combination with 1 μM B101
[5] = tested compound 0.1 μM in combination with 1 μM B105
[6] = tested compound 1 μM in combination with 1 μM B101
[7] = tested compound 1 μM in combination with 1 μM B105
[8] = tested compound 10 μM in combination with 1 μM B101
[9] = tested compound 10 μM in combination with 1 μM B105
[10] = tested compound 0.1 μM in combination with 1 μM ARN-509
[11] = tested compound 0.1 μM in combination with 1 μM Abiraterone acetate
[12] = tested compound 0.1 μM in combination with 1 μM Enzalutamide
[13] = tested compound 0.1 μM in combination with 1 μM Galeterone
[14] = tested compound 0.1 μM in combination with 1 μM ODM-201
[15] = tested compound 1 μM in combination with 1 μM ARN-509
[16] = tested compound 1 μM in combination with 1 μM Abiraterone acetate
[17] = tested compound 1 μM in combination with 1 μM Enzalutamide
[18] = tested compound 1 μM in combination with 1 μM Galeterone
[19] = tested compound 1 μM in combination with 1 μM ODM-201
[20] = tested compound 10 μM in combination with 1 μM ARN-509
[21] = tested compound 10 μM in combination with 1 μM Abiraterone acetate
[22] = tested compound 10 μM in combination with 1 μM Enzalutamide
[23] = tested compound 10 μM in combination with 1 μM Galeterone
[24] = tested compound 10 μM in combination with 1 μM ODM-201

CNC(=O)c1ccc(N2C(=S)N(c3ccc(C#N)c(C(F)(F)F)c3)C(=O)C2(C)C)cc1F [Enzalutamide, reference compound]
inhibition at 0.5 µM [1]: 30.7%
Survival rate of LNCap cells ([2]; tested compound alone, 0.1 μM): 101.5%
Survival rate of LNCap cells ([2]; tested compound alone, 1 μM): 70.5%
Survival rate of LNCap cells ([2]; tested compound alone, 1 μM, listed as enzalutamide): 70.5%
Survival rate of LNCap cells ([2]; tested compound alone, 10 μM): 59.3%

CC(=O)O[C@H]1CC[C@@]2(C)C(=CC[C@@H]3[C@@H]2CC[C@]2(C)C(c4cccnc4)=CC[C@@H]32)C1 [Abiraterone acetate, reference compound]
viability at 0.1 µM ([3]; tested compound alone): 106%
viability at 1 µM ([3]; tested compound alone, 1 μM): 91.7%
Survival rate of Vcap cells [3, 4]: 72.2%
Survival rate of Vcap cells [3, 5]: 77.3%
Survival rate of Vcap cells [3, 6]: 70.5%
Survival rate of Vcap cells [3, 7]: 70.7%
Survival rate of Vcap cells [3, 8]: 66.7%
Survival rate of Vcap cells [3, 9]: 69.2%
Survival rate of LNCap cells ([2]; tested compound alone, 0.1 μM): 109.2%
Survival rate of LNCap cells ([2]; tested compound alone, 1 μM): 90.7%
Survival rate of LNCap cells ([2]; tested compound alone, 10 μM): 45.2%

CNC(=O)c1ccc(N2C(=S)N(c3cnc(C#N)c(C(F)(F)F)c3)C(=O)C23CCC3)cc1F [ARN-509, reference compound]
Survival rate of Vcap cells [3, 4]: 42.7%
Survival rate of Vcap cells [3, 5]: 45.3%
Survival rate of Vcap cells [3, 6]: 39.2%
Survival rate of Vcap cells [3, 7]: 38.6%
Survival rate of Vcap cells [3, 8]: 38.4%
Survival rate of Vcap cells [3, 9]: 38.0%
Survival rate of LNCap cells ([2]; tested compound alone, 0.1 μM): 105.2%
Survival rate of LNCap cells ([2]; tested compound alone, 1 μM): 86.7%
Survival rate of LNCap cells ([2]; tested compound alone, 10 μM): 60.2%

C[C@]12CC[C@H](O)CC1=CC[C@@H]1[C@@H]2CC[C@]2(C)C(n3cnc4ccccc43)=CC[C@@H]12 [Galeterone, reference compound]
viability at 0.1 µM ([3]; tested compound alone): 95.9%
viability at 1 µM ([3]; tested compound alone, 1 μM): 62.8%
viability at 10 µM ([3]; tested compound alone): 19.3%
Survival rate of Vcap cells ([3]; tested compound alone, 1 μM): 62.8%
Survival rate of LNCap cells ([2]; tested compound alone, 0.1 μM): 104.9%
Survival rate of LNCap cells ([2]; tested compound alone, 1 μM): 79%
Survival rate of LNCap cells ([2]; tested compound alone, 10 μM): 24.2%

Nc1cc(F)cc2c1CN(C1CCC(=O)NC1=O)C2=O (stereo not shown) [B101]
viability at 0.1 µM ([3]; tested compound alone): 77.7%
viability at 1 µM ([3]; tested compound alone, 1 μM): 65.4%
viability at 10 µM ([3]; tested compound alone): 64.7%
Survival rate of Vcap cells [3, 10]: 29.3%
Survival rate of Vcap cells [3, 11]: 61.8%
Survival rate of Vcap cells [3, 12]: 30.6%
Survival rate of Vcap cells [3, 13]: 38.6%
Survival rate of Vcap cells [3, 14]: 43.8%
Survival rate of Vcap cells [3, 15]: 24.3%
Survival rate of Vcap cells [3, 16]: 56.6%
Survival rate of Vcap cells [3, 17]: 25.2%
Survival rate of Vcap cells [3, 18]: 34.4%
Survival rate of Vcap cells [3, 19]: 37.1%
Survival rate of Vcap cells [3, 20]: 24.5%
Survival rate of Vcap cells [3, 21]: 52.9%
Survival rate of Vcap cells [3, 22]: 24.4%
Survival rate of Vcap cells [3, 23]: 32.5%
Survival rate of Vcap cells [3, 24]: 32.5%
Survival rate of LNCap cells [2, 10]: 86.7%
Survival rate of LNCap cells [2, 11]: 82.4%
Survival rate of LNCap cells [2, 12]: 59.3%
Survival rate of LNCap cells [2, 13]: 76.3%
Survival rate of LNCap cells [2, 15]: 46.3%
Survival rate of LNCap cells [2, 16]: 46.2%
Survival rate of LNCap cells [2, 17]: 34.1%
Survival rate of LNCap cells [2, 18]: 43.6%
Survival rate of LNCap cells [2, 20]: 32.4%
Survival rate of LNCap cells [2, 21]: 33.2%
Survival rate of LNCap cells [2, 22]: 27.1%
Survival rate of LNCap cells [2, 23]: 31.4%
Survival rate of LNCap cells ([2]; tested compound alone, 0.1 μM): 99.6%
Survival rate of LNCap cells ([2]; tested compound alone, 1 μM): 63%
Survival rate of LNCap cells ([2]; tested compound alone, 10 μM): 42.4%

[2H][C@]1(N2Cc3c(N)cc(F)cc3C2=O)CCC(=O)NC1=O [B105]
Vcap cell proliferation inhibition rate ([3]; B105 or C111 0.05 μM alone): 17.4%
Vcap cell proliferation inhibition rate ([3]; B105 or C111 0.14 μM alone): 23.9%
Vcap cell proliferation inhibition rate ([3]; B105 or C111 1.23 μM alone): 26.3%
Vcap cell proliferation inhibition rate ([3]; B105 or C111 3.70 μM alone): 25.9%
Vcap cell proliferation inhibition rate ([3]; B105 or C111 11.11 μM alone): 27.0%
Vcap cell proliferation inhibition rate ([3]; B105 or C111 33.33 μM alone): 27.4%
Vcap cell proliferation inhibition rate ([3]; B105 or C111 100.00 μM alone): 25.1%
Vcap cell proliferation inhibition rate ([3]; B105 or C111 300.00 μM alone): 22.8%
viability at 0.1 µM ([3]; tested compound alone): 83.3%
viability at 1 µM ([3]; tested compound alone, 1 μM): 72.5%
viability at 10 µM ([3]; tested compound alone): 72.7%
Survival rate of Vcap cells [3, 10]: 30.6%
Survival rate of Vcap cells [3, 11]: 65.0%
Survival rate of Vcap cells [3, 12]: 31.6%
Survival rate of Vcap cells [3, 13]: 40.9%
Survival rate of Vcap cells [3, 14]: 43.3%
Survival rate of Vcap cells [3, 15]: 28.0%
Survival rate of Vcap cells [3, 16]: 57.1%
Survival rate of Vcap cells [3, 17]: 27.5%
Survival rate of Vcap cells [3, 18]: 36.7%
Survival rate of Vcap cells [3, 19]: 36.6%
Survival rate of Vcap cells [3, 20]: 27.0%
Survival rate of Vcap cells [3, 21]: 58.0%
Survival rate of Vcap cells [3, 22]: 27.5%
Survival rate of Vcap cells [3, 23]: 36.3%
Survival rate of Vcap cells [3, 24]: 32.2%
Survival rate of LNCap cells [2, 10]: 82.6%
Survival rate of LNCap cells [2, 11]: 83.7%
Survival rate of LNCap cells [2, 12]: 57.5%
Survival rate of LNCap cells [2, 13]: 73.4%
Survival rate of LNCap cells [2, 15]: 44.7%
Survival rate of LNCap cells [2, 16]: 47.9%
Survival rate of LNCap cells [2, 17]: 32%
Survival rate of LNCap cells [2, 18]: 40.6%
Survival rate of LNCap cells [2, 20]: 32.4%
Survival rate of LNCap cells [2, 21]: 31.7%
Survival rate of LNCap cells [2, 22]: 25.8%
Survival rate of LNCap cells [2, 23]: 30.6%
Survival rate of LNCap cells ([2]; tested compound alone, 0.1 μM): 102.9%
Survival rate of LNCap cells ([2]; tested compound alone, 1 μM): 61.5%
Survival rate of LNCap cells ([2]; tested compound alone, 10 μM): 40.8%
